According to patent US20240150293A1, “SPIROCYCLOHEXANE DERIVATIVES, PHARMACEUTICAL COMPOSITIONS CONTAINING THEM AND THEIR USES AS ANTI-APOPTOTIC INHIBITORS” (LES LABORATOIRES SERVIER, priority 2021, published 2024):

Target: Mcl-1 protein (UniProtKB Q07820) (Homo sapiens (Human), UniProt Q07820)
Experiment: Inhibition of Mcl-1 by the fluorescence polarisation assay (Example A, Method A)
Assay type: binding
Conditions: fluorescence polarization assay
Method in brief: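 Protein (5 nM) and fluorescein-tagged peptide tracer (1 nM) incubated with 11-point compound series for 2 h at room temperature in HEPES/NaCl/Tween 20 buffer, pH 7.4, 5% DMSO. Displacement read as decrease in polarisation; IC50 fitted by 4-parameter logistic, converted to Ki (cKi or eKi).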

Sequence of Mcl-1 protein (Q07820 whole entry): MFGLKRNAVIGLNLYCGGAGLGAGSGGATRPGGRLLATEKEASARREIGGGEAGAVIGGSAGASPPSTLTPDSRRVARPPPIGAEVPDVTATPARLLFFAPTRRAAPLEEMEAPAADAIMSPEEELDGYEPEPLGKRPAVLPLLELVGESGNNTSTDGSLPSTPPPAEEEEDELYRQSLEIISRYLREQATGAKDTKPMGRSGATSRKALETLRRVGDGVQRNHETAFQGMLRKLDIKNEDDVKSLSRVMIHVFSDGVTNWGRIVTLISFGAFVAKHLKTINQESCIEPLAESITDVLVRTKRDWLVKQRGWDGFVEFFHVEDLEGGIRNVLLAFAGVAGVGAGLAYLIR

**Q.** `COCCOc1cccc(C2=Cc3ccccc3[C@]23CC[C@@](Nc2cccc(Cl)c2)(C(=O)O)CC3)c1` [Example 315, (1s,4s)-4-(3-chloroanilino)-2′-[3-(2-methoxyethoxy)phenyl]spiro[cyclohexane-1,1′-indene]-4-carboxylic acid] was tested. Which Ki did it give?
**A.** Its Ki is 546 nM.

**Q.** With `COCC(COC)CC1=Cc2ccccc2[C@]12CC[C@@](Nc1cccc(Cl)c1)(C(=O)O)CC2` [Example 493, (1r,4r)-4-(3-chloroanilino)-2′-[3-methoxy-2-(methoxymethyl)propyl]spiro[cyclohexane-1,1′-indene]-4-carboxylic acid] as the molecule, how does the Ki read?
**A.** The Ki was 1780 nM.

**Q.** How did the Ki turn out when `Cc1cc(C2Cc3ccccc3C23CCC(Nc2cccc(Br)c2)(C(=O)O)CC3)cs1` (stereo not shown) [Example 232, 4-(3-bromoanilino)-2′-(5-methylthiophen-3-yl)-2′,3′-dihydrospiro[cyclohexane-1,1′-indene]-4-carboxylic acid] was run?
**A.** The Ki was 578 nM.

**Q.** With `COc1ccc(C2Cc3ccccc3C23CCC(Nc2cccc(Cl)c2)(C(=O)O)CC3)cc1Cl` (stereo not shown) [Example 279, (1r,4r)-4-(3-chloroanilino)-2′-(3-chloro-4-methoxyphenyl)-2′,3′-dihydrospiro[cyclohexane-1,1′-indene]-4-carboxylic acid] as the molecule, how does the Ki read?
**A.** The Ki was 383 nM.

**Q.** How did the Ki turn out when `CN(CCc1ccncc1)C(=O)C1=Cc2ccccc2[C@]12CC[C@@](Nc1cccc(Cl)c1)(C(=O)O)CC2` [Example 403, (1s,4s)-4-(3-chloroanilino)-2′-{methyl[2-(pyridin-4-yl)ethyl]carbamoyl}spiro[cyclohexane-1,1′-indene]-4-carboxylic acid] was run?
**A.** Its Ki is 8210 nM.

**Q.** For `C=CCOC1Cc2ccccc2[C@]12CC[C@@](Nc1cccc(Br)c1)(C(=O)O)CC2` (stereo partly shown) [Example 121, (1s,4s)-4-(3-bromoanilino)-2′-[(prop-2-en-1-yl)oxy]-2′,3′-dihydrospiro[cyclohexane-1,1′-indene]-4-carboxylic acid], which Ki is on record?
**A.** Its Ki is 1550 nM.

**Q.** How did the Ki turn out when `Cc1cccc(C2Cc3ccccc3C23CCC(Nc2cccc(Br)c2)(C(=O)O)CC3)c1` (stereo not shown) [Example 215, 4-(3-bromoanilino)-2′-(3-methylphenyl)-2′,3′-dihydrospiro[cyclohexane-1,1′-indene]-4-carboxylic acid] was run?
**A.** Its Ki is 846 nM.

**Q.** For `O=C(O)[C@]1(Nc2cccc(Cl)c2)CC[C@]2(CC1)C(c1coc3ccccc13)=Cc1ccccc12` [Example 245, (1s,4s)-2′-(1-benzofuran-3-yl)-4-(3-chloroanilino)spiro[cyclohexane-1,1′-indene]-4-carboxylic acid], which Ki is on record?
**A.** Its Ki is 4300 nM.

**Q.** Which Ki does the source give for `O=C(O)[C@]1(Nc2cccc(Br)c2)CC[C@@]2(CCCc3ccccc32)CC1` [Example 119, (1r,4s)-4-(3-bromoanilino)-3′,4′-dihydro-2′H-spiro[cyclohexane-1,1′-naphthalene]-4-carboxylic acid] here?
**A.** The Ki was 836 nM.

**Q.** How did the Ki turn out when `COc1cccc(Cl)c1C1=Cc2ccccc2[C@]12CC[C@@](Nc1cccc(Cl)c1)(C(=O)O)CC2` [Example 250, (1s,4s)-4-(3-chloroanilino)-2′-(2-chloro-6-methoxyphenyl)spiro[cyclohexane-1,1′-indene]-4-carboxylic acid] was run?
**A.** The Ki was 13900 nM.

**Q.** `O=C(O)[C@]1(Nc2cccc(Cl)c2)CC[C@]2(CC1)C(Br)=Cc1ccc(F)cc12` [Example 139, (1s,4s)-2′-bromo-4-(3-chloroanilino)-6′-fluorospiro[cyclohexane-1,1′-indene]-4-carboxylic acid] was tested. Which Ki did it give?
**A.** The Ki was 265 nM.

**Q.** `O=C(O)[C@]1(Nc2cccc(Cl)c2)CC[C@@]2(CC1)c1ccccc1CC2CCCN1CCOCC1` (stereo partly shown) [Example 196, (1r,4r)-4-(3-chloroanilino)-2′-[3-(morpholin-4-yl)propyl]-2′,3′-dihydrospiro[cyclohexane-1,1′-indene]-4-carboxylic acid] was tested. Which Ki did it give?
**A.** Its Ki is 9470 nM.

**Q.** Which Ki does the source give for `O=C(O)[C@]1(Nc2cccc(Cl)c2)CC[C@@]2(CC1)c1ccccc1CC2[C@H]1C[C@@H]1COc1cccnc1` (single isomer, unassigned) [Example 113, (1r,4r)-4-(3-chloroanilino)-2′-[(1R*,2S*)-2-{[(pyridin-3-yl)oxy]methyl}cyclopropyl]-2′,3′-dihydrospiro[cyclohexane-1,1′-indene]-4-carboxylic acid] here?
**A.** The Ki was 22300 nM.

**Q.** For `O=C(O)[C@]1(Nc2cccc(Cl)c2)CC[C@@]2(CC1)c1ccccc1CC2[C@H]1C[C@@H]1COc1ccnc2ccsc12` (single isomer, unassigned) [Example 104, (1r,4r)-4-(3-chloroanilino)-2′-[(1R*,2S*)-2-{[(thieno[3,2-b]pyridin-7-yl)oxy]methyl}cyclopropyl]-2′,3′-dihydrospiro[cyclohexane-1,1′-indene]-4-carboxylic acid], which Ki is on record?
**A.** Its Ki is 1360 nM.

**Q.** For `CCC1=Cc2ccccc2[C@]12CC[C@](Nc1cccc(Br)c1)(C(=O)O)CC2` [Example 146, (1s,4s)-4-(3-bromoanilino)-2′-ethylspiro[cyclohexane-1,1′-indene]-4-carboxylic acid], which Ki is on record?
**A.** The Ki was 6920 nM.

**Q.** For `C[C@@H](COc1ccnc(CO)c1)C[C@H]1Cc2ccccc2[C@]12CC[C@@](Nc1cccc(Cl)c1)(C(=O)O)CC2` [Example 579, (1r,2′S,4S)-4-(3-chloroanilino)-2′-[(2R)-3-{[2-(hydroxymethyl)pyridin-4-yl]oxy}-2-methylpropyl]-2′,3′-dihydrospiro[cyclohexane-1,1′-indene]-4-carboxylic acid], which Ki is on record?
**A.** Its Ki is 216 nM.

**Q.** For `CCOCCCC1Cc2ccccc2[C@]12CC[C@@](Nc1cccc(Cl)c1)(C(=O)O)CC2` (stereo partly shown) [Example 156, (1r,4r)-4-(3-chloroanilino)-2′-(3-ethoxypropyl)-2′,3′-dihydrospiro[cyclohexane-1,1′-indene]-4-carboxylic acid], which Ki is on record?
**A.** The Ki was 621 nM.

**Q.** How did the Ki turn out when `COc1ccc2c(c1)C=C(Br)[C@]21CC[C@](Nc2cccc(Cl)c2)(C(=O)O)CC1` [Example 130, (1s,4s)-2′-bromo-4-(3-chloroanilino)-5′-methoxyspiro[cyclohexane-1,1′-indene]-4-carboxylic acid] was run?
**A.** Its Ki is 92.4 nM.

**Q.** Which Ki does the source give for `Cc1noc(C)c1C1Cc2ccccc2C12CCC(Nc1cccc(Br)c1)(C(=O)O)CC2` (single isomer, unassigned) [Example 231, 4-(3-bromoanilino)-2′-(3,5-dimethyl-1,2-oxazol-4-yl)-2′,3′-dihydrospiro[cyclohexane-1,1′-indene]-4-carboxylic acid] here?
**A.** Its Ki is 7720 nM.

**Q.** How did the Ki turn out when `O=C(O)[C@]1(Nc2cccc(Cl)c2)CC[C@@]2(CC1)c1ccccc1C[C@@H]2c1ccc(-c2ccccc2)o1` [Example 357, (1r,2′S,4S)-4-(3-chloroanilino)-2′-(5-phenylfuran-2-yl)-2′,3′-dihydrospiro[cyclohexane-1,1′-indene]-4-carboxylic acid] was run?
**A.** The Ki was 15400 nM.

**Q.** `O=C(O)[C@]1(Nc2cccc(Cl)c2)CC[C@@]2(CC1)c1ccccc1CC2CCCOc1cccc2c1CCN2` (stereo partly shown) [Example 470, (1r,4r)-4-(3-chloroanilino)-2′-{3-[(2,3-dihydro-1H-indol-4-yl)oxy]propyl}-2′,3′-dihydrospiro[cyclohexane-1,1′-indene]-4-carboxylic acid] was tested. Which Ki did it give?
**A.** The Ki was 184 nM.

**Q.** With `O=C(O)[C@]1(Nc2cccc(Cl)c2)CC[C@@]2(CC1)c1ccccc1CC2c1cccc(OCc2ccncc2)c1` (single isomer, unassigned) [Example 373, (1r,4r)-4-(3-chloroanilino)-2′-{3-[(pyridin-4-yl)methoxy]phenyl}-2′,3′-dihydrospiro[cyclohexane-1,1′-indene]-4-carboxylic acid] as the molecule, how does the Ki read?
**A.** Its Ki is 221 nM.

**Q.** How did the Ki turn out when `O=C(O)[C@]1(Nc2cccc(Cl)c2)CC[C@]2(CC1)C(C#CCCOc1ccnc3ccsc13)=Cc1ccccc12` [Example 195, (1s,4s)-4-(3-chloroanilino)-2′-{4-[(thieno[3,2-b]pyridin-7-yl)oxy]but-1-yn-1-yl}spiro[cyclohexane-1,1′-indene]-4-carboxylic acid] was run?
**A.** The Ki was 266 nM.

**Q.** With `O=C(O)[C@]1(Nc2cccc(Cl)c2)CC[C@]2(CC1)C(CCCCOc1ccccc1)=Cc1ccccc12` [Example 160, (1r,4r)-4-(3-chloroanilino)-2′-(4-phenoxybutyl)spiro[cyclohexane-1,1′-indene]-4-carboxylic acid] as the molecule, how does the Ki read?
**A.** Its Ki is 768 nM.

**Q.** `CC[C@H](COc1cccnc1)C[C@H]1Cc2ccccc2[C@]12CC[C@@](Nc1cccc(Cl)c1)(C(=O)O)CC2` [Example 540, (1r,2′S,4S)-4-(3-chloroanilino)-2′-[(2S)-2-{[(pyridin-3-yl)oxy]methyl}butyl]-2′,3′-dihydrospiro[cyclohexane-1,1′-indene]-4-carboxylic acid] was tested. Which Ki did it give?
**A.** The Ki was 185 nM.

**Q.** Which Ki does the source give for `O=C(O)[C@]1(Nc2cccc(Cl)c2)CC[C@]2(CC1)C(c1ccc(OCc3ccncc3)cc1)=Cc1ccccc12` [Example 349, (1s,4s)-4-(3-chloroanilino)-2′-{4-[(pyridin-4-yl)methoxy]phenyl}spiro[cyclohexane-1,1′-indene]-4-carboxylic acid] here?
**A.** The Ki was 3590 nM.

**Q.** `O=C(O)[C@]1(Nc2cccc(Cl)c2)CC[C@]2(CC1)C(C1=CCCCC1)=Cc1ccccc12` [Example 275, (1r,4r)-4-(3-chloroanilino)-2′-(cyclohex-1-en-1-yl)spiro[cyclohexane-1,1′-indene]-4-carboxylic acid] was tested. Which Ki did it give?
**A.** The Ki was 10100 nM.

**Q.** For `O=C(O)[C@]1(Nc2cccc(Cl)c2)CC[C@]2(CC1)C(Br)=Cc1c(Cl)cccc12` [Example 137, (1s,4s)-2′-bromo-4′-chloro-4-(3-chloroanilino)spiro[cyclohexane-1,1′-indene]-4-carboxylic acid], which Ki is on record?
**A.** The Ki was 192 nM.

**Q.** Which Ki does the source give for `COc1ccc(Cl)c(C2Cc3ccccc3[C@]23CC[C@@](Nc2cccc(Cl)c2)(C(=O)O)CC3)c1` (single isomer, unassigned) [Example 258, (1r,4r)-4-(3-chloroanilino)-2′-(2-chloro-5-methoxyphenyl)-2′,3′-dihydrospiro[cyclohexane-1,1′-indene]-4-carboxylic acid] here?
**A.** Its Ki is 2370 nM.

**Q.** `O=C(O)[C@]1(Nc2cccc(Cl)c2)CC[C@]2(CC1)C(c1ccc(OCc3cccnc3)cc1)=Cc1ccccc12` [Example 350, (1s,4s)-4-(3-chloroanilino)-2′-{4-[(pyridin-3-yl)methoxy]phenyl}spiro[cyclohexane-1,1′-indene]-4-carboxylic acid] was tested. Which Ki did it give?
**A.** Its Ki is 1750 nM.

**Q.** `O=C(O)[C@]1(Nc2cccc(Cl)c2)CC[C@@]2(CC1)c1ccccc1CC2CCCc1ccc(Cl)cc1` (stereo partly shown) [Example 162, (1r,4r)-4-(3-chloroanilino)-2′-[3-(4-chlorophenyl)propyl]-2′,3′-dihydrospiro[cyclohexane-1,1′-indene]-4-carboxylic acid] was tested. Which Ki did it give?
**A.** Its Ki is 558 nM.
